Source: paper PMC4321955 (Free radical biology & medicine, 2013)

Assays:
[1] = tested on: site IQ; format: biochemical, rat; details: […] CN-POBS
[2] = tested on: site IF/DH (site IF plus matrix NAD-linked dehydrogenases); assay: site IF/DH superoxide/H2O2 production assay; format: biochemical, rat
[3] = tested on: mitochondrial sn-glycerol 3-phosphate dehydrogenase (mGPDH); assay: mGPDH superoxide/H2O2 production assay; format: biochemical, rat
[4] = tested on: mitochondrial membrane potential (ΔΨm); assay: ΔΨm assay with potentiometric dye TMRM; format: biochemical, rat; details: for lowest concentration that significantly decreased ΔΨm: 5 mM glutamate plus 5 mM malate
[5] = tested on: flavin site of complex II (site IIF); assay: site IIF superoxide/H2O2 production assay; format: biochemical, rat
[6] = tested on: outer ubiquinone-binding site of complex III (site IIIQo); assay: site IIIQo superoxide/H2O2 production assay; format: biochemical, rat
[7] = target: ubiquinone-binding site of complex I (site IQ) (Rattus norvegicus, UniProt A6K8N6+P03889+Q641Y2); assay: site IQ superoxide/H2O2 production assay; format: biochemical; details: at the compound's estimated IC50 (80 µM for compound 15); 5 mM succinate
[8] = tested on: site IF; assay: steady-state H2O2 production specifically from site IF; format: biochemical, rat; details: […] CN-POBS; 5 mM malate, […] ATP, 1.5 mM aspartate, 4 µM rotenone, 1 µg/mL oligomycin
[9] = tested on: complex I; assay: rate of reverse electron transport from succinate to NAD; format: biochemical, rat
[10] = ref NCBI PubChem compound database; cited from earlier work
[11] = at the compound's estimated site IQ IC50 (80 µM for compound 15)
[12] = dose-response 0.08-80 µM, none observed below this

O=[N+]([O-])c1ccc(Oc2ccc(S(=O)(=O)NC3CCCCC3)cc2)cc1 [CN-POBS, N-cyclohexyl-4-(4-nitrophenoxy)benzenesulfonamide]
decrease in total rate of H2O2 production ([1]; 5 mM succinate alone): 50% | effect on H2O2 production by succinate in the presence of rotenone (from site IF/DH) ([1]; 5 mM succinate with 4 µM rotenone): no significant effect | IF/DH: normalized percent change from DMSO in H2O2 production [2, 11]: 7% | concentration with significant effects on H2O2 production from site IF/DH [2, 12]: ≥ 25 µM | mGPDH: normalized percent change from DMSO in H2O2 production [3, 11]: −2% | concentration with significant effects on H2O2 production from mGPDH [3, 12]: ≥ 25 µM | lowest concentration that significantly decreased ΔΨm ([4]; absence of nigericin, TMRM): 8 µM | lowest concentration that significantly decreased ΔΨm ([4]; presence of nigericin, TMRM): 25 µM | concentration that significantly decreased ΔΨm ([4]; 5 mM succinate and 4 µM rotenone, TMRM): 80 µM | ΔΨm: normalized percent change from DMSO [4, 11]: −1% | IIF: normalized percent change from DMSO in H2O2 production [5, 11]: 4% | concentration with significant effects on H2O2 production from site IIF [5, 12]: ≥ 25 µM | IIIQo: normalized percent change from DMSO in H2O2 production [6, 11]: 0% | concentration with significant effects on H2O2 production from site IIIQo [6, 12]: ≥ 25 µM | IQ: normalized percent change from DMSO in H2O2 production [7]: −56% | effect on H2O2 production specifically from site IF [8]: no effect | concentration with significant effect on reverse electron flux through complex I (rate of NAD(P)+ reduction) ([9]; 5 mM succinate plus 0.5 mM glutamate, no significant effect below this): ≥ 25 µM | Rate of NAD(P)+ Reduction: normalized percent change from DMSO ([9]; at the compound's estimated site IQ IC50, succinate via complex I): −1% | LogP [10]: 4.1
